In PMC6120924, “YesU from Bacillus subtilis preferentially binds fucosylated glycans” (Scientific Reports, 2018):

Target: T1, YesU (Bacillus subtilis, UniProt O31524)
T1 construct: captured by His tag on NTA chip
T1 sequence (O31524 1-220): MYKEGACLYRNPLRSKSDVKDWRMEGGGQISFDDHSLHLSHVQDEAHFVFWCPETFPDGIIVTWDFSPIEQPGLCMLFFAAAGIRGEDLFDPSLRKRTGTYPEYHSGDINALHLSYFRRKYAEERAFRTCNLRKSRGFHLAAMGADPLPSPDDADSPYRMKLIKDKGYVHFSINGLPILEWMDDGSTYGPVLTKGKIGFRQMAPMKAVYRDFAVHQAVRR
Test: SPR, steady state, single cycle, Biacore T100
Assay type: binding
Settings: His-YesU on Ni-NTA chip; PBS-MgCl2 pH 7.4; 25 °C
From the text: SPR, steady state, single cycle, Biacore T100 on YesU

Row | Compound | Kd [nM]
1 | CC(=O)N[C@H]1C(O)O[C@H](CO)[C@@H](O[C@@H]2O[C@@H](C)[C@@H](O)[C@@H](O)[C@@H]2O)[C@@H]1O[C@@H]1O[C@H](CO)[C@H](O)[C@H](O)[C@H]1O (stereo partly drawn) [7J, Galβ1-3(Fucα1-4)GlcNAc] | 420 ± 4
2 | C[C@@H]1O[C@@H](O[C@H]2C(O)O[C@H](CO)[C@H](O)[C@@H]2O[C@H]2O[C@H](CO)[C@H](O)[C@H](O)[C@H]2O)[C@@H](O)[C@H](O)[C@@H]1O (stereo partly drawn) [7M, Galα1-3(Fucα1-2)Gal] | 190 ± 3
3 | CC(=O)N[C@H]1C(O)O[C@H](CO)[C@@H](O[C@@H]2O[C@@H](C)[C@@H](O)[C@@H](O)[C@@H]2O)[C@@H]1O[C@@H]1O[C@H](CO)[C@H](O)[C@H](OS(=O)(=O)O)[C@H]1O (stereo partly drawn) [8A, SO3-3Galβ1-3(Fucα1-4)GlcNAc] | 2070 ± 20
4 | C[C@@H]1O[C@@H](O[C@H]2C(O)O[C@H](CO)[C@H](O)[C@@H]2O)[C@@H](O)[C@H](O)[C@@H]1O (stereo partly drawn) [7F, Fucα1-2Gal] | 360 ± 10
5 | CC(=O)N[C@H]1C(O)O[C@H](CO)[C@@H](O[C@@H]2O[C@H](CO)[C@H](O)[C@H](O)[C@H]2O)[C@@H]1O[C@@H]1O[C@@H](C)[C@@H](O)[C@@H](O)[C@@H]1O (stereo partly drawn) [7I, Galβ1-4(Fucα1-3)GlcNAc] | 150 ± 6
6 | CC(=O)NC1C(OC2C(O)C(COC3OC(CO)C(OC4OC(CO)C(O)C(OC5OC(CO)C(OC6OC(CO)C(O)C(O)C6O)C(O)C5NC(C)=O)C4O)C(OC4OC(C)C(O)C(O)C4O)C3NC(C)=O)OC(OC3C(CO)OC(O)C(O)C3O)C2O)OC(CO)C(OC2OC(CO)C(O)C(O)C2O)C1O (stereo not drawn) [8N, Galβ1-3GlcNAcβ1-3Galβ1-4(Fucα1-3)GlcNAcβ1-6(Galβ1-3 GlcNAcβ1-3)Galβ1-4Glc] | 240 ± 20
7 | CC(=O)N[C@H]1[C@H](O[C@H]2[C@H](O)[C@@H](NC(C)=O)[C@H](O[C@H]3[C@H](O)[C@@H](NC(C)=O)C(O)O[C@@H]3CO)O[C@@H]2CO)O[C@H](CO)[C@@H](O[C@@H]2O[C@H](CO)[C@@H](O[C@@H]3O[C@H](CO)[C@@H](O[C@@H]4O[C@H](CO)[C@@H](O)[C@H](O)[C@H]4NC(C)=O)[C@H](O)[C@H]3NC(C)=O)[C@H](O)[C@H]2NC(C)=O)[C@@H]1O (stereo partly drawn) [4D, GlcNAcβ1-4GlcNAcβ1-4GlcNAcβ1-4GlcNAcβ1-4GlcNAcβ 1-4GlcNAc] | 1130 ± 20

More lines, now with the values ahead:

Row | Kd [nM] | Compound
8 | 1140 ± 30 | CC(=O)N[C@H]1[C@H](O[C@H]2[C@@H](O)[C@@H](CO)O[C@@H](O[C@H]3[C@H](O)[C@@H](O)C(O)O[C@@H]3CO)[C@@H]2O)O[C@H](CO)[C@@H](O[C@@H]2O[C@H](CO)[C@H](O)[C@H](O)[C@H]2O[C@@H]2O[C@@H](C)[C@@H](O)[C@@H](O)[C@@H]2O)[C@@H]1O[C@@H]1O[C@@H](C)[C@@H](O)[C@@H](O)[C@@H]1O (stereo partly drawn) [8H, Fucα1-2Galβ1-4(Fucα1-3)GlcNAcβ1-3Galβ1-4Glc]
9 | 140 ± 1 | CC(=O)N[C@H]1[C@H](O[C@H]2[C@@H](O)[C@@H](CO)O[C@@H](O[C@H]3[C@H](O)[C@@H](O)C(O)O[C@@H]3CO)[C@@H]2O)O[C@H](CO)[C@@H](O[C@@H]2O[C@H](CO)[C@H](O)[C@H](O)[C@H]2O)[C@@H]1O[C@@H]1O[C@@H](C)[C@@H](O)[C@@H](O)[C@@H]1O (stereo partly drawn) [7C, Galβ1-4(Fucα1-3)GlcNAcβ1-3Galβ1-4Glc]
10 | 340 ± 4 | CC(=O)N[C@H]1C(O)O[C@H](CO)[C@@H](O[C@@H]2O[C@H](CO)[C@H](O)[C@H](O)[C@H]2O[C@@H]2O[C@@H](C)[C@@H](O)[C@@H](O)[C@@H]2O)[C@@H]1O (stereo partly drawn) [7O, Fucα1-2Galβ1-4GlcNAc]
11 | 7630 ± 300 | CC(=O)N[C@H]1[C@@H](O[C@H]2[C@@H](O)[C@@H](CO)OC(O)[C@@H]2O[C@@H]2O[C@@H](C)[C@@H](O)[C@@H](O)[C@@H]2O)O[C@H](CO)[C@H](O)[C@@H]1O (stereo partly drawn) [7K, GalNAcα1-3(Fucα1-2)Gal]
12 | 1230 ± 20 | CC(=O)N[C@H]1[C@H](O[C@H]2[C@@H](O)[C@@H](CO)O[C@@H](O[C@H]3[C@H](O)[C@@H](O)C(O)O[C@@H]3CO)[C@@H]2O)O[C@H](CO)[C@@H](O)[C@@H]1O[C@@H]1O[C@H](CO)[C@H](O)[C@H](O)[C@H]1O[C@@H]1O[C@@H](C)[C@@H](O)[C@@H](O)[C@@H]1O (stereo partly drawn) [7A, Fucα1-2Galβ1-3GlcNAcβ1-3Galβ1-4Glc]
13 | 440 ± 20 | CC(=O)N[C@H]1[C@H](O[C@H]2[C@@H](O)[C@@H](CO)O[C@@H](O[C@H]3[C@H](O)[C@@H](O)C(O)O[C@@H]3CO)[C@@H]2O)O[C@H](CO)[C@@H](O[C@@H]2O[C@H](CO)[C@H](O)[C@H](O)[C@H]2O)[C@@H]1O (stereo partly drawn) [1H, Galβ1-4GlcNAcβ1-3Galβ1-4Glc]
14 | 340 ± 2 | CC(=O)N[C@H]1C(O)O[C@H](CO)[C@@H](O[C@@H]2O[C@H](CO)[C@H](O)[C@H](O)[C@H]2O[C@@H]2O[C@@H](C)[C@@H](O)[C@@H](O)[C@@H]2O)[C@@H]1O[C@@H]1O[C@@H](C)[C@@H](O)[C@@H](O)[C@@H]1O (stereo partly drawn) [7N, Fucα1-2Galβ1-4(Fucα1-3)GlcNAc]
15 | 340 ± 10 | CC(=O)N[C@H]1[C@H](O[C@H]2[C@@H](O)[C@@H](CO)O[C@@H](O[C@H]3[C@H](O[C@@H]4O[C@@H](C)[C@@H](O)[C@@H](O)[C@@H]4O)[C@@H](O)C(O)O[C@@H]3CO)[C@@H]2O)O[C@H](CO)[C@@H](O[C@@H]2O[C@@H](C)[C@@H](O)[C@@H](O)[C@@H]2O)[C@@H]1O[C@@H]1O[C@H](CO)[C@H](O)[C@H](O)[C@H]1O (stereo partly drawn) [7E, Galβ1-3(Fucα1-4)GlcNAcβ1-3Galβ1-4(Fucα1-3)Glc]
